# Measured values taken from PMC4459817, “Vasculotide reduces endothelial permeability and tumor cell extravasation in the absence of binding to or agonistic activation of Tie2” (EMBO Molecular Medicine, 2015).
# T1: mouse Tie2-Fc (Fc-conjugated extracellular domain of Tie2) (mouse, UniProt Q02858 23-746)
# T1 chain: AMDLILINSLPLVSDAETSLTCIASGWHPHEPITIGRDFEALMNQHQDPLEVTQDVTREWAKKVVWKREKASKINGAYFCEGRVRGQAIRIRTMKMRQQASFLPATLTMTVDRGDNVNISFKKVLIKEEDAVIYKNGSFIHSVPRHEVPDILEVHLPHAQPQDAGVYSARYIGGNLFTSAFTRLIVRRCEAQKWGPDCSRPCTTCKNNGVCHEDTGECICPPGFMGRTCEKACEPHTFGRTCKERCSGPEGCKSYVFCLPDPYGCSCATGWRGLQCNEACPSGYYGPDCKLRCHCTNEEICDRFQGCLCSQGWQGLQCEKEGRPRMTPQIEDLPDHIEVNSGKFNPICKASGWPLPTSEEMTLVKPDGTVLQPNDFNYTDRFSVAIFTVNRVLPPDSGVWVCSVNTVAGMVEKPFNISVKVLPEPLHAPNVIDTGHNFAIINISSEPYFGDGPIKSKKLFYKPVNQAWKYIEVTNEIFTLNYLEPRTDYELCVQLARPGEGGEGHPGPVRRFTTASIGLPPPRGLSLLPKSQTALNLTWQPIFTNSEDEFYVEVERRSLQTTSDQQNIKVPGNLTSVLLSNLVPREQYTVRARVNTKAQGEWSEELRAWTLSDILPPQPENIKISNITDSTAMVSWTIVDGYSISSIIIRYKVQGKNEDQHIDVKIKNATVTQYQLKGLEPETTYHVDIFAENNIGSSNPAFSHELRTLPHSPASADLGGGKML
# B1: recombinant human Ang1 (rhAng1) (ligand, UniProt Q15389 16-498, looked up)
# chain: HIGCSNQRRSPENSGRRYNRIQHGQCAYTFILPEHDGNCRESTTDQYNTNALQRDAPHVEPDFSSQKLQHLEHVMENYTQWLQKLENYIVENMKSEMAQIQQNAVQNHTATMLEIGTSLLSQTAEQTRKLTDVETQVLNQTSRLEIQLLENSLSTYKLEKQLLQQTNEILKIHEKNSLLEHKILEMEGKHKEELDTLKEEKENLQGLVTRQTYIIQELEKQLNRATTNNSVLQKQQLELMDTVHNLVNLCTKEGVLLKGGKREEEKPFRDCADVYQAGFNKSGIYTIYINNMPEPKKVFCNMDVNGGGWTVIQHREDGSLDFQRGWKEYKMGFGNPSGEYWLGNEFIFAITSQRQYMLRIELMDWEGNRAYSQYDRFHIGNEKQNYRLYLKGHTGTAGKQSSLILHGADFSTKDADNDNCMCKCALMLTGGWWFDACGPSNLNGMFYTAGQNHGKLNGIKWHYFKGPSYSLRSTTMMIRPLDF
# notes: angiopoietin-1, human, recombinant; also called angiopoietin-1; source: bought: R&D Systems (named for the Boyden chamber experiments)
# Experiments:
# [1] = system: advanced metastatic breast cancer; conditions: monotherapy or combined with chemotherapies; ref Ebos & Kerbel, 2011; Mackey et al, 2012; cited from earlier work
# Source text: These clinical results were recently replicated in a preclinical model of postsurgical advanced MBC (Guerin et al, [2013]). As discussed previously (Guerin et al, [2013]), primary and secondary tumors may have divergent responses to anti-angiogenic ...
# [2] = system: advanced metastatic breast cancer; conditions: ref Yardley et al, 2012; cited from earlier work
# Source text: Another possible explanation for the apparent insensitivity of MBC to TKI treatments is that the growth of secondary tumors post-metastatic colonization of the lung/liver may still be susceptible to the intended anti-angiogenic inhibition, but that these growth-inhibitory benefits may be diluted by concurrent unintended drug effects that promote tumor spread.
# [3] = system: Tie2− tumor cells (LM2-4luc); assay: MTS cell viability assay, tumor cells; assay type: cell-based, human; conditions: 48 h MTS; Supplementary Fig S2 (VT 0.1 to 1000 ng/mL)
# Protocol: TCs were cultured in DMEM High Glucose basal media supplemented with 5% FBS and grown humidified incubators at 37 °C, 21%O2 and 5%CO2 unless otherwise specified. LM2-4 luc is a highly metastatically aggressive variant of the human breast carcinoma MDA-MB-231 cell line (derived through serial in vivo selection of lung metastases from orthotopic implantations in immunodeficient mice) that has been transfected with a firefly luciferase vector (Man et al, 2007; Ebos et al, 2009). HT29luc is a human colon carcinoma cell line also transfected with the luciferase gene (Hackl et al, 2013). SN12luc refers to a luciferase-tagged and highly metastatic clone of a human renal cell carcinoma cell line, SN12-PM6-L1luc (Jedeszko et al, 2015). MeWo is a human melanoma cell line (Ebos et al, 2009).
# 2. Endothelial cells (ECs) […]
# 5,000 LM2-4luc or HMVEC-LBl cells, in 100uL of their regular growth media, were seeded per well on a 96-well plate. […] Absorbances were read at 490nm and background-corrected with reference 560nm readings or acellular treatment-only […]
# 4. […] Protein concentrations in TC-CM vs. control media were measured using: a Quantikine ELISA kit (R&D Systems DVE00) for human VEGF; a FlowCytomix Multiplex kit (eBioscience BMS810FF) for human IL-6 and IL-8; and a BCA protein assay kit (Thermo Scientific) for total protein.
# [4] = system: endothelial cells; conditions: cells stimulated with sepsis-related mediators incl. thrombin; ref David et al, 2011; cited from earlier work
# Source text: Thrombin is also a metastasis-associated factor that can promote endothelial adhesion and diapedesis of TCs (Nierodzik & Karpatkin, [2006]).
# [5] = target: T1, mouse Tie2-Fc (Fc-conjugated …); assay: SPR
molecule,measurement,setting,value
"CCN(CC)CCNC(=O)c1c(C)[nH]c(/C=C2\C(=O)Nc3ccc(F)cc32)c1C [sunitinib, reference compound]",phase III clinical trial outcome,[1],repeatedly failed in multiple phase III clinical trials
same,"response rate, distally disseminated visceral metastatic disease",[2],9%
same,"response rate, locoregionally growing superficial metastatic disease",[2],20%
"CHHHRHSF [Vasculotide, 4-armed maleimide-functionalized polyethylene glycol (PEG) backbone to link together four cysteine-capped T7 peptides, that is, CHHHRHSF]",cytotoxic effect on TCs / viability,[3],no direct cytotoxic effect
same,endothelial barrier integrity,[4],preserve endothelial barrier integrity
B1,koff,[5],0.00033 s⁻¹
